{"source": "ChEMBL document CHEMBL1201862", "about": "“PubChem BioAssay data set” (2004)", "key": {"[1]": {"molecular_target": "Intestinal-type alkaline phosphatase (Homo sapiens, UniProt P09923)", "sequence (P09923 whole entry)": "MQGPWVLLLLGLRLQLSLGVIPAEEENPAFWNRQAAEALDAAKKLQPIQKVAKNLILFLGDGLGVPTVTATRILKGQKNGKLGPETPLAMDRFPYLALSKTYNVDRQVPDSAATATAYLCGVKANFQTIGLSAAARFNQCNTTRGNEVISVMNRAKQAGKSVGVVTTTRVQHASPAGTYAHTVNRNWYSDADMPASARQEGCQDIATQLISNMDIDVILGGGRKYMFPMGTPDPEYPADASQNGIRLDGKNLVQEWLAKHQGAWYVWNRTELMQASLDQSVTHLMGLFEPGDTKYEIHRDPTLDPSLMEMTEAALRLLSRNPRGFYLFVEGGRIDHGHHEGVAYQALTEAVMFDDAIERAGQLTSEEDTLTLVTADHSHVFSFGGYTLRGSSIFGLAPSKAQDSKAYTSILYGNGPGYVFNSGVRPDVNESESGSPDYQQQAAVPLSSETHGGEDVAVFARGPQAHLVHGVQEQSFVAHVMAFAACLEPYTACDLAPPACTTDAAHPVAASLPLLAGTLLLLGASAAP", "experiment": "activation of human intestinal alkaline phosphatase – biochemical, dose response (AID 488873)", "type": "functional"}, "[2]": {"molecular_target": "T1, DNA dC->dU-editing enzyme APOBEC-3A (Homo sapiens, UniProt P31941)", "T1 sequence (P31941 whole entry)": "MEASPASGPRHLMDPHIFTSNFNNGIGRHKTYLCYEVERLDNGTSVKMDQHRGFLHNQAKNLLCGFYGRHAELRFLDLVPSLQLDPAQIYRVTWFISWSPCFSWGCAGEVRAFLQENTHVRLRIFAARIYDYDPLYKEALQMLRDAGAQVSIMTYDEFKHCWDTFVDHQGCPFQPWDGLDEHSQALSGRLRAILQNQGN", "experiment": "SAR analysis of small molecule inhibitors of APOBEC3A DNA Deaminase via a fluorescence-based single-stranded DNA deaminase assay.", "type": "functional", "settings": "read-out: IC50_Mean"}, "[3]": {"molecular_target": "T2, Histone-lysine N-methyltransferase NSD2 (Homo sapiens, UniProt O96028)", "T2 sequence (O96028 whole entry)": "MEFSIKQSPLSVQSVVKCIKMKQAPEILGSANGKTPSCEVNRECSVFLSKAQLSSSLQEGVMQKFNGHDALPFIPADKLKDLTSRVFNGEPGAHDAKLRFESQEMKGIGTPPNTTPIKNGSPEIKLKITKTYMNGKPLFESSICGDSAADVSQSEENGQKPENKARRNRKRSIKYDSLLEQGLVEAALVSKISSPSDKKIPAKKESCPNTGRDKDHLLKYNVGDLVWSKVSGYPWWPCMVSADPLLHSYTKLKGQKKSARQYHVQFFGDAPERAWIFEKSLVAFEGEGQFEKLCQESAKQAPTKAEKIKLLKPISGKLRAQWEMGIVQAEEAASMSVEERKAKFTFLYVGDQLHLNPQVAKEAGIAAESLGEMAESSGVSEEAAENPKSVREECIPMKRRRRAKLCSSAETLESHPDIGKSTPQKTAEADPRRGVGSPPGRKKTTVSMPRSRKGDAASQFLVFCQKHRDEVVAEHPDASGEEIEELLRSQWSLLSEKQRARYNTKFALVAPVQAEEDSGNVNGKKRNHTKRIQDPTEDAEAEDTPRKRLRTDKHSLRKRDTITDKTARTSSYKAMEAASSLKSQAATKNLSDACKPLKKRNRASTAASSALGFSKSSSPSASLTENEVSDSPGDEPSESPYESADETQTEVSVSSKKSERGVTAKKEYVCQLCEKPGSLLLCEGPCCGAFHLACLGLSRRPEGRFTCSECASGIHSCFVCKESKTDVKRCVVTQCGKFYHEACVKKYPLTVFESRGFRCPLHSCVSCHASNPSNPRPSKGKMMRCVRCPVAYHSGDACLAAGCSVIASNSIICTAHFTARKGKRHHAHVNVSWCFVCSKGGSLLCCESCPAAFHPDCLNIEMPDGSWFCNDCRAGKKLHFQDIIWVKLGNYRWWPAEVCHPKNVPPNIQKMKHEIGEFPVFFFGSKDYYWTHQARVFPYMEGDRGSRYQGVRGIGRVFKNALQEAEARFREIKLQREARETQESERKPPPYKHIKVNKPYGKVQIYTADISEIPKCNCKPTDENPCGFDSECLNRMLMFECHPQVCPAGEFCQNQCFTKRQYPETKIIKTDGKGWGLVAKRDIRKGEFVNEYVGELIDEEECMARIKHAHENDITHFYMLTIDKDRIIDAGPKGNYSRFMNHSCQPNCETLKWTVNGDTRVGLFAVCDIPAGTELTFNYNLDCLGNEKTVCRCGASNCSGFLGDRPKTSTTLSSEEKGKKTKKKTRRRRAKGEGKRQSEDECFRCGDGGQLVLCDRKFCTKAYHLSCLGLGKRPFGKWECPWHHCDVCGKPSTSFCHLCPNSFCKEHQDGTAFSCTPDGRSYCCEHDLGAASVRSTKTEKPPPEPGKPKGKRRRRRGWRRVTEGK", "type": "biochemical"}, "HeLa": {"tested_on": "HeLa", "experiment": "HeLa cell cytotoxicity, dose response, cytotoxicity control, 24 h, cherry-picked samples (AID 504726);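 also: potency for cytotoxicity as loss of luminescence signal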", "type": "functional, cell-based", "settings": "Homo sapiens"}, "[4]": {"molecular_target": "T1, DNA dC->dU-editing enzyme APOBEC-3A", "experiment": "SAR analysis of small molecule inhibitors of APOBEC3A DNA Deaminase via a fluorescence-based single-stranded DNA deaminase assay - Set 2.", "type": "functional", "settings": "read-out: IC50_Mean"}, "ORF 73": {"molecular_target": "ORF 73 (Human herpesvirus 8, UniProt O40947)", "sequence (O40947 whole entry)": "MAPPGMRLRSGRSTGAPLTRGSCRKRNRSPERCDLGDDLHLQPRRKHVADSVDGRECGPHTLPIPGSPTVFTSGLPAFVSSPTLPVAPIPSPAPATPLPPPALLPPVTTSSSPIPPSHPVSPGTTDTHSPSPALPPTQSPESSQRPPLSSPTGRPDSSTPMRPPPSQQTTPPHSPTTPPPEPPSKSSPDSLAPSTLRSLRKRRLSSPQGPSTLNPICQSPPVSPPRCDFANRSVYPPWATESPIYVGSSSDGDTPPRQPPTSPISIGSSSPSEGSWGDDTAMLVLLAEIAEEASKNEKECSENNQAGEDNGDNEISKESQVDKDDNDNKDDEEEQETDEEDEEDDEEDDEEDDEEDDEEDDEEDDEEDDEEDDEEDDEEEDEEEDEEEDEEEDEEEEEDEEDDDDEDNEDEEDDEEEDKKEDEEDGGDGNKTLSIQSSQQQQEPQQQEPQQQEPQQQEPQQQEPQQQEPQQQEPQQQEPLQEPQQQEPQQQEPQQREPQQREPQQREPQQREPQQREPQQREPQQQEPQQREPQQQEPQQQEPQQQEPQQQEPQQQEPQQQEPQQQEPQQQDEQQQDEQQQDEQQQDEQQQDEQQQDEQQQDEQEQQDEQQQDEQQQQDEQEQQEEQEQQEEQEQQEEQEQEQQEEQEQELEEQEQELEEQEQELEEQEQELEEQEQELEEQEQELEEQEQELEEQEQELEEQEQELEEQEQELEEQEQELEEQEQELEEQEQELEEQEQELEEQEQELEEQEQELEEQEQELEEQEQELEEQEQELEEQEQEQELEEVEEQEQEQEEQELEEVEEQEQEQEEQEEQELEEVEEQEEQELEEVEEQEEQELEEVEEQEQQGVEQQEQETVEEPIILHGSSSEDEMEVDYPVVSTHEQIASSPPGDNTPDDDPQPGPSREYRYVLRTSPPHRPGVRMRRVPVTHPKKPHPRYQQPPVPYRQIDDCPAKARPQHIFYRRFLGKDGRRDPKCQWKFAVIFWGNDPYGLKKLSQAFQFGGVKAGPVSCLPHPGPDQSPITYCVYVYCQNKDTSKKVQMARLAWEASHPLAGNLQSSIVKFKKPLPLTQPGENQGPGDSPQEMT", "experiment": "inhibitors of C-LANA binding to LBS DNA, dose response, biochemical, fluorescence polarization, cherry-picked samples (AID 504725);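 also: fluorescence polarization of a labeled DNA duplex reporting LANA DNA binding; potency is for inhibitors that block LANA binding to the DNA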", "parameters": "species or system Human gammaherpesvirus 8"}, "[5]": {"molecular_target": "T3, DNA dC->dU-editing enzyme APOBEC-3G (Homo sapiens, UniProt Q9HC16)", "T3 sequence (Q9HC16 whole entry)": "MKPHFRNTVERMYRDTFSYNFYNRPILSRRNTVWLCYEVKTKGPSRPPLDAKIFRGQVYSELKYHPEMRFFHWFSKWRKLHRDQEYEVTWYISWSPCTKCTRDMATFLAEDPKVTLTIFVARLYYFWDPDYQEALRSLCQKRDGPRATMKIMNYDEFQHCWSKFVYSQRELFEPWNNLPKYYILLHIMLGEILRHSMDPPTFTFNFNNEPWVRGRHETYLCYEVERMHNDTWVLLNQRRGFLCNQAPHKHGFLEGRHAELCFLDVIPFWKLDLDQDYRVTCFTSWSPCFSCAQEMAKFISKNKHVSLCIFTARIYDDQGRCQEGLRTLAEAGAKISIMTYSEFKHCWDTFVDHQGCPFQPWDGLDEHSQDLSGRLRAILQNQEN", "experiment": "SAR analysis of small molecule inhibitors of APOBEC3G DNA Deaminase via a fluorescence-based single-stranded DNA deaminase assay - Set 2.", "type": "functional", "settings": "read-out: IC50_Mean"}, "[6]": {"molecular_target": "Intestinal-type alkaline phosphatase (Mus musculus, UniProt P24822)", "sequence (P24822 whole entry)": "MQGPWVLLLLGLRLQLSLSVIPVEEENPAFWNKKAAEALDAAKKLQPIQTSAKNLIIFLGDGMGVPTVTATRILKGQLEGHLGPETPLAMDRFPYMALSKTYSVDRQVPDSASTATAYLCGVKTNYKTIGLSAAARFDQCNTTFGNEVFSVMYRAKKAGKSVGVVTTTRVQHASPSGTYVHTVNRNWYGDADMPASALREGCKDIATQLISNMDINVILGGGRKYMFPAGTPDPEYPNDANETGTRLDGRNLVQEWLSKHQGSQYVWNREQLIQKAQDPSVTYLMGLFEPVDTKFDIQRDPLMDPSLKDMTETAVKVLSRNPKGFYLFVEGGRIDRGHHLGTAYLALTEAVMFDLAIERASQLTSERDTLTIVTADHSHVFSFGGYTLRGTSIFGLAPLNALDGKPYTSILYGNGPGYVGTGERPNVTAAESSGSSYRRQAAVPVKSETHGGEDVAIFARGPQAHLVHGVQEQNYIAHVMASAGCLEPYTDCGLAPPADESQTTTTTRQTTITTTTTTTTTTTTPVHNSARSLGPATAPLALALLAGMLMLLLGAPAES", "experiment": "PubChem AID 488785", "type": "functional"}, "[7]": {"molecular_target": "T4, Small ubiquitin-related modifier 2 (Homo sapiens, UniProt P61956)", "T4 sequence (P61956 whole entry)": "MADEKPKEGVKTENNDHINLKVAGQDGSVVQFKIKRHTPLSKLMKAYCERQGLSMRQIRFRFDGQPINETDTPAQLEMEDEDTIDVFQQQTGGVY", "experiment": "SUMO2–SIM peptide binding inhibitors, dose response, selectivity assay for SUMO1 interaction inhibitor project, biochemical, fluorescence polarization, uHTS hits (AID 624385)", "type": "functional", "settings": "read-out: IC50_Mean"}, "[8]": {"molecular_target": "T5, Small ubiquitin-related modifier 1 (Homo sapiens, UniProt P63165)", "T5 sequence (P63165 whole entry)": "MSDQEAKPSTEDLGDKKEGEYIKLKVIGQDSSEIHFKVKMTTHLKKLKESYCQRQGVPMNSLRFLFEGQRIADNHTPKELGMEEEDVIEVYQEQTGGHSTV", "experiment": "inhibitors of SUMO1 peptide binding, dose response, biochemical, fluorescence polarization, uHTS hits (AID 624382)", "type": "functional", "settings": "read-out: IC50_Mean"}, "[9]": {"molecular_target": "T4, Small ubiquitin-related modifier 2", "experiment": "inhibitors of SUMO2 protein-protein interaction, dose response, selectivity assay for SUMO1 interaction inhibitor project, biochemical, FRET, human SUMO2, uHTS hits (AID 624384)", "type": "functional", "settings": "read-out: IC50_Mean"}, "[10]": {"molecular_target": "T5, Small ubiquitin-related modifier 1", "experiment": "inhibitors of SUMO1 partner interactions, dose response, biochemical, FRET (AID 624383)", "type": "functional", "settings": "read-out: IC50_Mean"}, "[11]": {"molecular_target": "T3, DNA dC->dU-editing enzyme APOBEC-3G", "experiment": "APOBEC3G deaminase inhibitors, SAR follow-up, biochemical, fluorescence, single-stranded DNA substrate (AID 602136)", "type": "functional", "settings": "read-out: IC50_Mean"}, "[12]": {"molecular_target": "Induced myeloid leukemia cell differentiation protein Mcl-1 (Homo sapiens, UniProt Q07820)", "sequence (Q07820 whole entry)": "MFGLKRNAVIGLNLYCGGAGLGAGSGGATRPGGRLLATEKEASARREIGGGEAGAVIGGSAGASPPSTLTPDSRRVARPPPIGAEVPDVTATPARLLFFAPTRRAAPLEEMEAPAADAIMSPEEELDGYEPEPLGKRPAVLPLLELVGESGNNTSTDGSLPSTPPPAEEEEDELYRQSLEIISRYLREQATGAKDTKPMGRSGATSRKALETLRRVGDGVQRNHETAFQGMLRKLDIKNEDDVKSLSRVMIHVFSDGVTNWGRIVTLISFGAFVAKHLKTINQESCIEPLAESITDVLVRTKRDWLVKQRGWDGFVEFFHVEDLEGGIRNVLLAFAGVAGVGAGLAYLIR", "type": "functional"}, "[13]": {"molecular_target": "T6, Alkaline phosphatase, tissue-nonspecific isozyme (Homo sapiens, UniProt P05186)", "T6 sequence (P05186 whole entry)": "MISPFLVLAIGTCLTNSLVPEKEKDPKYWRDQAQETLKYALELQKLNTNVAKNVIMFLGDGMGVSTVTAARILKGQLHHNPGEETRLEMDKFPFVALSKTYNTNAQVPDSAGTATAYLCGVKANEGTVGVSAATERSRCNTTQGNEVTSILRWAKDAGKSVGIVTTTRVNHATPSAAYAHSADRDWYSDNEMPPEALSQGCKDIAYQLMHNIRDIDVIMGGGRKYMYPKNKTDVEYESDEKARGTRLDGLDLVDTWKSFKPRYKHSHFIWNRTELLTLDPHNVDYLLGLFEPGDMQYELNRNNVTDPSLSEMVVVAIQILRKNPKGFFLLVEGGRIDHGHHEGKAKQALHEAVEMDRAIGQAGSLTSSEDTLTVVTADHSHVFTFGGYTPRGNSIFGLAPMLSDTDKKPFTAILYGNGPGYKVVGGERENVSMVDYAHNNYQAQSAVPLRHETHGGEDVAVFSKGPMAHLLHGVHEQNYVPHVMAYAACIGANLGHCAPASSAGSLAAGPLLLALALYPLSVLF", "experiment": "TNAP enzyme inhibition by screening hits, dose response, selectivity assay for mouse IAP inhibitor project, biochemical, human TNAP, uHTS hits (AID 488906)", "type": "functional"}, "[14]": {"molecular_target": "Eukaryotic translation initiation factor 4E (Mus musculus, UniProt P63073)", "sequence (P63073 whole entry)": "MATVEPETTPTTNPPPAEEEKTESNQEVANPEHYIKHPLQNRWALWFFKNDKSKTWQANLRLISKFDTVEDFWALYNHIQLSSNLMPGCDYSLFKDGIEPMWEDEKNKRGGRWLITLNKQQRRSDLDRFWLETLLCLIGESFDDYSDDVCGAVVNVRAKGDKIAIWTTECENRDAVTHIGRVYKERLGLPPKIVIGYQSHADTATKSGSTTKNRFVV", "experiment": "eIF4E–eIF4G protein interaction inhibitors, dose response, biochemical, TR-FRET (AID 855);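 also: potency for disrupting eIF4E binding to eIF4GI seen as loss of FRET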", "type": "functional"}, "Large T antigen": {"molecular_target": "Large T antigen (Simian virus 40, UniProt P03070)", "sequence (P03070 whole entry)": "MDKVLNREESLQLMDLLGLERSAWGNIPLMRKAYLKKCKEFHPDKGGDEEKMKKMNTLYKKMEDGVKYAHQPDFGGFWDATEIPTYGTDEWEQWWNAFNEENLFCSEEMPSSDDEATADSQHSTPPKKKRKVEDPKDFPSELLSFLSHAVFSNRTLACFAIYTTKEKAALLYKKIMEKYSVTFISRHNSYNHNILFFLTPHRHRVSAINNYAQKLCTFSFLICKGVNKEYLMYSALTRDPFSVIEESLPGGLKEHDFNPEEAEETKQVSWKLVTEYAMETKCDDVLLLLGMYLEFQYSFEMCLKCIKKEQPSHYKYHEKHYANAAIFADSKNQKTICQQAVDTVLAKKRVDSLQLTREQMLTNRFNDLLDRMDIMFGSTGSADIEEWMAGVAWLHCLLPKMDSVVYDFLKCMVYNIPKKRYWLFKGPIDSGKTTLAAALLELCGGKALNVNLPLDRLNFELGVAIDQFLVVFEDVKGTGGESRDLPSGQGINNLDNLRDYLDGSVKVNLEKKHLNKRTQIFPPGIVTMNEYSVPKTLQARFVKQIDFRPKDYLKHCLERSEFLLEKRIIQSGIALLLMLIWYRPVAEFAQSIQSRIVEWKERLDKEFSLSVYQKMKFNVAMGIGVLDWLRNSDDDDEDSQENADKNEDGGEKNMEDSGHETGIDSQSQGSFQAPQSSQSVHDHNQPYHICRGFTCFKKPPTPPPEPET", "type": "functional, Betapolyomavirus macacae"}}, "note": "Calls of active or inactive are those of the source.", "data": [{"smiles": "CC(=O)c1ccc2c(c1)C1C=CCC1C(C(=O)O)N2", "note": "(configuration not stated)", "values": [{"measurement": "EC50", "setting": "[1]", "value": "> 100 µM (inactive)"}, {"measurement": "IC50", "setting": "[2]", "value": "5.37 µM (active)"}, {"measurement": "AC50", "setting": "[3]", "value": "1.45 µM (active)"}, {"measurement": "AC50", "setting": "HeLa", "value": "277 µM (active)"}, {"measurement": "IC50", "setting": "[4]", "value": "2.32 µM (active)"}, {"measurement": "AC50", "setting": "ORF 73", "value": "15 µM (active)"}, {"measurement": "IC50", "setting": "[5]", "value": "0.989 µM (active)"}, {"measurement": "IC50", "setting": "[6]", "value": "6.61 µM (active)"}, {"measurement": "IC50", "setting": "[7]", "value": "4.87 µM (active)"}, {"measurement": "IC50", "setting": "[8]", "value": "10.9 µM (active)"}, {"measurement": "IC50", "setting": "[9]", "value": "1.45 µM (active)"}, {"measurement": "IC50", "setting": "[10]", "value": "4.9 µM (active)"}, {"measurement": "IC50", "setting": "[11]", "value": "5.03 µM (active)"}, {"measurement": "IC50", "setting": "[12]", "value": "5.11 µM (active)"}, {"measurement": "IC50", "setting": "[13]", "value": "78.5 µM (active)"}, {"measurement": "IC50", "setting": "[14]", "value": "50 µM (inactive)"}, {"measurement": "IC50", "setting": "Large T antigen", "value": "50.6 µM (active)"}]}]}
